Measurements published in patent US10316039B2, “P2X3 and/or P2X2/3 compounds and methods” (Asana Biosciences, LLC, priority 2013, dated 2019).
pIC50: −log10 of the molar value.

Legend:
[1] = molecular target: T1, P2X3 (UniProt P56373); assay: P2X3 FLIPR intracellular calcium assay; format: cell-based; settings: agonist at EC75, species (human or rat) not given
T1 sequence (P56373 1-397): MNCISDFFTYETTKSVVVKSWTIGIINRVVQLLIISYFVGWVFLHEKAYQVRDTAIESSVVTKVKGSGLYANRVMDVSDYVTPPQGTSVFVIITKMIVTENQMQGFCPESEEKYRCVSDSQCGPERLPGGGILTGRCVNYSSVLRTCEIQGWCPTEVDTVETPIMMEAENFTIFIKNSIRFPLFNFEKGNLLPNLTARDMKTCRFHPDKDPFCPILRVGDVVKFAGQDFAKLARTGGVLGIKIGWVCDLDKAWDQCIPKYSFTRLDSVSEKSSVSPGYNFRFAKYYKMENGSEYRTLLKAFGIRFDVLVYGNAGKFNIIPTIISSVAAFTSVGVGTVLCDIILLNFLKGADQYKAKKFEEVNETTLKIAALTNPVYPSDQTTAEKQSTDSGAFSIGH
From the text: The FLIPR® assay utilizes cells which express human or rat P2X3 or P2X2/3 receptors. […] The PCR product obtained containing the protein coding sequence of rat P2X2 was cloned into EcoRV-digested and dephosphorylated vector pIRES-puro3 within the multiple cloning site (MCS). See, FIG. 1A.
Rat P2X3 (NCBI Accession No: X91167) was amplified by PCR from rat brain cDNA. The PCR product obtained containing the protein coding sequence of rat P2X3 was cloned into EcoRV-digested and dephosphorylated vector pCDNA-Hygro within the multiple cloning site (MCS) (FIG. 1B). Rat P2X3 cloned into pcDNA-Hygro was then subcloned into pcDNA-5/TO at HindIII (5′) and XhoI (3′) sites within the multiple cloning site (MCS) of the vector (FIG. 1C).
(§1) Transfection was carried out using super-coiled constructs (purified using QIAGEN kit) in antibiotic free, serum free DMEM using Lipofectamine® 2000 (Invitrogen) transfection agent. The DNA constructs rat P2X2 in pIRES-Puro3 and rat P2X3 in pCDNA5/TO were co-transfected into TRex293 cells in order to generate the rP2X2/3 stable line. 50 μg/mL hygromycin (Invitrogen) and 0.5 μg/mL puromycin (Fermentek) were used for selection of stable clones of rP2X2/3. Rat P2X3 in pCDNA5/TO DNA construct was transfected to CHO-TRex cells to generate the rP2×3 stable line and 500 μg/mL hygromycin (Invitrogen) was used as selection antibiotic. Transfected stable colonies were then functionally verified and robust clones suitable for assay were clonally purified through dilutions.
(§2) Cryo-vial containing 6×10^6 cells (human P2X3-HEK/human P2X2/3-TRex293/rat P2X2/3-TRex293/rat P2X3 TRex-CHO) was thawed in a 37° C. water bath. Cells were suspended in 20 mL of respective cell plating media (See annexure for composition) in a 50 mL centrifuge tube. The cell viability was checked with the help of Trypan Blue dye. Upon washing, cells were plated in a black 384-well clear bottomed, sterile poly-D-lysine coated plate such that, each well contained 10,000 cells (15,000/well for hP2X3) in 30 μL cell plating media. The plate was incubated in a 5% CO2 incubator at 37° C. for 24 h.
(§3) The next day, prior to the assay, the cell plating media was removed from each well by decanting and gentle tapping. Thirty μL of FLIPR Calcium 4 dye solution was added to each well. The plate was incubated at 37° C. for 45 min (60 min for hP2X3). The plate was next equilibrated at room temperature for 15 minutes before placing it in a 384 well FLIPR for the assay.
Dilutions were mixed with assay buffer just before performing the assay.
(§4) Compounds were added to the respective wells of the assay-ready cell plate with the help of the FLIPR and fluorescence readings were captured for 5 min to observe any possible agonistic property of the compounds. The plate was then incubated at room temperature for 15 min. The cells were stimulated with respective agonist EC75 concentration and the fluorescence readings were captured for another 5 min by FLIPR. The difference in fluorescence readings in presence of the compounds were compared with that of the control wells (wells having no compound) to calculate the inhibitory potency of the compounds. The IC50 values of the compounds were determined using the Graph pad Prism software.
(vi) Dye Solution Composition • 1×FLIPR Calcium 4 dye in assay buffer (Molecular devices Cat# R8141) • 1.8 mM Probenecid (Sigma Cat# P8761) • pH adjusted to 7.4

[2] = molecular target: T2, P2X2/3 (Homo sapiens, UniProt P56373+Q9UBL9); assay: P2X2/3 FLIPR intracellular calcium assay; format: cell-based; settings: agonist at EC75, species (human or rat) not given
T2 sequence (Q9UBL9 1-471): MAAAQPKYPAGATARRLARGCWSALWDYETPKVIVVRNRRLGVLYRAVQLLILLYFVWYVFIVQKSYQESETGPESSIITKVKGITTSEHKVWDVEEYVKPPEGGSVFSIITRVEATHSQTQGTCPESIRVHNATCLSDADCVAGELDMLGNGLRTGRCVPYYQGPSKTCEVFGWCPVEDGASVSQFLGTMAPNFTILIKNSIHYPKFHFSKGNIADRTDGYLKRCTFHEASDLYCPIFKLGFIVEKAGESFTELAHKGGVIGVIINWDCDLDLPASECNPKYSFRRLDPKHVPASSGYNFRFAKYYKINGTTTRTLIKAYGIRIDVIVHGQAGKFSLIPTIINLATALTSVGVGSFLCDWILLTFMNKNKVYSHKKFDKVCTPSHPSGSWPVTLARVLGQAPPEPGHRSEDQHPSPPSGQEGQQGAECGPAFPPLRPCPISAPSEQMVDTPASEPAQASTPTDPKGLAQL
T2 sequence (P56373 1-397): T1 sequence (P56373 1-397)
From the text: The FLIPR® assay utilizes cells which express human or rat P2X3 or P2X2/3 receptors. Recombinant cells expressing hP2X3 (Cat#6188) and hP2X2/3 (Cat#6179) were procured from Chantest Corp. Rat P2X2 (NCBI Accession No: U14414) was amplified by PCR from PC12 cDNA (a rat adrenal medulla cell line). The PCR product obtained containing the protein coding sequence of rat P2X2 was cloned into EcoRV-digested and dephosphorylated vector pIRES-puro3 within the multiple cloning site (MCS). See, FIG. 1A.
as §1, §2, §3
Compounds were dissolved in DMSO and serially diluted following 11 point half log (3.16 fold) dilution with a starting concentration of 2 mM. Dilutions were mixed with assay buffer just before performing the assay.
as §4
(ii) Cell Plating Media for hP2X3-HEK and hP2X2/3-TRex293 Cells • DMEM/F12 (1:1) HAM media (Invitrogen; Cat#11039) • 1×NEAA (Invitrogen; Cat#11140) • 25 mM HEPES (Invitrogen; Cat#15630) • 1 mM sodium pyruvate (Invitrogen; Cat#11360) • 10% tetracycline negative FBS (PAA; Cat# A15-209) • 1 μg/mL doxycycline (Clontech; Cat#63131) [for hP2X2/3-TRex293 cells only]
(iii) Cell Plating Media for rP2X2/3-TRex293 Cells • DMEM media (Invitrogen; Cat#11965) • 25 mM HEPES (Invitrogen; Cat#15630) • 10% tetracycline negative FBS (PAA; Cat# A15-209) • 1 μg/mL Doxycycline (Clontech; Cat#63131)
(v) Assay Buffer Composition • HBSS (Invitrogen Cat#14025) • 20 mM HEPES (Invitrogen Cat#15630) • 0.01% F127 (Sigma Cat# P2443) • 1.8 mM CaCl2 (Sigma Cat# C5080) • pH adjusted to 7.4 […]

Structure (SMILES)	pIC50 [1]	pIC50 [2]
CCc1cnnn1-c1cc(C(=O)N[C@@H](C)c2nnc[nH]2)cn2c(-c3ccc(C)s3)cnc12 [Example 23]	7.00 to 9.00	6.00 to 7.00
Cc1ncc(CNC(=O)c2cc(-n3nnnc3C(F)F)c3ncc(-c4ccc(C)s4)n3c2)cn1 [Example 177]	7.00 to 9.00	7.00 to 9.00
Cc1ccc(-c2cnc3c(-c4c(C)noc4C)cc(C(=O)N[C@@H](C)c4nnc[nH]4)cn23)s1 [Example 102]	7.00 to 9.00	7.00 to 9.00
C[C@H](NC(=O)c1cc(-n2nncc2C(C)(F)F)c2ncc(-c3ccc(Cl)s3)n2c1)c1nnc[nH]1 [Example 76]	7.00 to 9.00	7.00 to 9.00
Cc1csc(-c2cnc3c(N4CCC(F)(F)CC4)cc(C(=O)N[C@@H](C)c4nnc[nH]4)cn23)c1 [Example 136]	7.00 to 9.00	6.00 to 7.00
Cc1cnc(-c2cnc3c(-n4nncc4C(F)F)cc(C(=O)N[C@@H](C)c4nnc[nH]4)cn23)s1 [Example 53]	7.00 to 9.00	7.00 to 9.00
Cc1ccc(-c2cnc3c(-c4cnn(C)c4)cc(C(=O)NCc4ccn(C)c(=O)c4)cn23)s1 [Example 99]	7.00 to 9.00	5.00 to 6.00
Cc1ccc(-c2cnc3c(-n4nnnc4C(C)C)cc(C(=O)NC(C)c4cnccn4)cn23)s1 (stereo not drawn) [Example 159]	6.00 to 7.00	5.00 to 6.00
C[C@H](NC(=O)c1cc(-n2nnnc2C(C)(F)F)c2ncc(-c3ccc(Cl)s3)n2c1)c1nnc[nH]1 [Example 184]	7.00 to 9.00	7.00 to 9.00
Cc1ccc(-c2cnc3c(-n4nncc4C(C)(C)C)cc(C(=O)N[C@@H](C)c4nnc[nH]4)cn23)s1 [Example 46]	7.00 to 9.00	7.00 to 9.00
Cc1ccc(-c2cnc3c(NC4CCCCC4)cc(C(=O)N[C@@H](C)c4nnc[nH]4)cn23)s1 [Example 121]	6.00 to 7.00	6.00 to 7.00
Cc1ccc(CNC(=O)c2cc(-n3nnnc3C(F)F)c3ncc(-c4ccc(C)s4)n3c2)cn1 [Example 18, 8-(5-(Difluoromethyl)-1H-tetrazol-1-yl)-N-((6-methylpyridin-3-yl)methyl)-3-(5-methylthiophen-2-yl)imidazo[1,2-a]pyridine-6-carboxamide]	7.00 to 9.00	7.00 to 9.00
Cc1ccc(-c2cnc3c(-n4nnnc4C(F)F)cc(C(=O)N[C@@H](C)c4nnc[nH]4)cn23)s1 [Example 168]	7.00 to 9.00	7.00 to 9.00
COc1ncc(CNC(=O)c2cc(-n3nnnc3C(F)F)c3ncc(-c4ccc(C)s4)n3c2)cn1 [Example 169]	7.00 to 9.00	7.00 to 9.00
Cc1ccc(CNC(=O)c2cc(-n3nncc3C(F)F)c3ncc(-c4ccc(C)o4)n3c2)cn1 [Example 48]	7.00 to 9.00	7.00 to 9.00
Cc1noc(C)c1-c1cc(C(=O)N[C@@H](C)c2nnc[nH]2)cn2c(-c3ccc(Cl)s3)cnc12 [Example 107]	7.00 to 9.00	7.00 to 9.00
Cc1ccc(-c2cnc3c(N4CCC(F)(F)CC4)cc(C(=O)N[C@@H](C)c4nnc[nH]4)cn23)s1 [Example 130]	7.00 to 9.00	7.00 to 9.00
Cc1ncc(CNC(=O)c2cc(-n3nncc3C3CCC3)c3ncc(-c4ccc(C)s4)n3c2)cn1 [Example 49]	< 5.00	7.00 to 9.00
CC[C@H](NC(=O)c1cc(-n2nncc2C(C)(C)C)c2ncc(-c3ccc(C)s3)n2c1)c1nnc[nH]1 [Example 67]	7.00 to 9.00	7.00 to 9.00
CC[C@H](NC(=O)c1cc(-n2nnnc2C(F)F)c2ncc(-c3ccc(C)s3)n2c1)c1nnc[nH]1 [Example 171]	7.00 to 9.00	7.00 to 9.00
CCCc1nnnn1-c1cc(C(=O)N[C@@H](C)c2nnc[nH]2)cn2c(-c3ccc(C)s3)cnc12 [Example 179]	7.00 to 9.00	7.00 to 9.00
Cc1ccc(-c2cnc3c(-c4cnn(CC5CC5)c4)cc(C(=O)N[C@@H](C)c4nnc[nH]4)cn23)s1 [Example 104]	7.00 to 9.00	6.00 to 7.00
CCc1cnnn1-c1cc(C(=O)N[C@H](C)c2nc(C)no2)cn2c(-c3ccc(C)s3)cnc12 [Example 88]	< 5.00	7.00 to 9.00
COC1(C)CCN(c2cc(C(=O)N[C@@H](C)c3nnc[nH]3)cn3c(-c4ccc(C)s4)cnc23)C1 (stereo partly drawn) [Example 142]	7.00 to 9.00	6.00 to 7.00
COc1ncc(CNC(=O)c2cc(-n3nncc3C(F)F)c3ncc(-c4ccc(C)s4)n3c2)cn1 [Example 35]	7.00 to 9.00	7.00 to 9.00
Cc1ccc(-c2cnc3c(-n4nncc4C(C)(F)F)cc(C(=O)N[C@@H](C)c4nnc[nH]4)cn23)s1 [Example 70]	7.00 to 9.00	7.00 to 9.00
COC1CCN(c2cc(C(=O)N[C@@H](C)c3nnc[nH]3)cn3c(-c4ccc(C)s4)cnc23)CC1 [Example 140]	7.00 to 9.00	6.00 to 7.00
CCc1cnnn1-c1cc(C(=O)NCc2cnc(C)cn2)cn2c(-c3ccc(C)s3)cnc12 [Example 24]	7.00 to 9.00	7.00 to 9.00
Cc1ncc(CNC(=O)c2cc(-n3nncc3C(F)F)c3ncc(-c4cnc(C)s4)n3c2)cn1 [Example 66]	6.00 to 7.00	6.00 to 7.00
CCc1cnnn1-c1cc(C(=O)N[C@@H](C)c2nnc[nH]2)cn2c(-c3ccc(C)o3)cnc12 [Example 62]	7.00 to 9.00	6.00 to 7.00
